Nine molecules from patent US10782294B2, “Peptides derived from myosin 19 and methods of use thereof” (TECHNION RESEARCH & DEVELOPMENT FOUNDATION LIMITED, priority 2014, dated 2020) can be followed below.

Assay [1] has as its system mitochondria (MitoTracker) or ER. The assay is described as follows: Colocalization of eGFP-fused myosin 19 tail constructs with mitochondria (MitoTracker) or ER (SRβ). The note with it: myosin 19^824-970-eGFP and mutant variants ectopically expressed. Format: cell-based. How it is done: Generation of peGFP-myosin 19 mutations and truncations were performed using high fidelity PCR enzymes with phosphorylated primers (Phusion, T4 PNK, NEB). We used peGFP-myosin 19 (peGFP-N1b was kindly provided by Dr. Ayoub (Technion-IIT)) or peGFP-myosin 19 tail (aa 824-970) as template with a single exception for peGFP-myosin 19^860-890 where peGFP-myosin 19^860-970 was used. The products were ligated using T4 ligase (NEB, Promega) and sequenced.
(§1) Transfections were performed using Polyethylenimine (PEI). Adherent U2OS cells were plated a day before transfection on plastic or glass bottom dishes and allowed to adhere overnight (ON). Plasmid DNA and PEI were diluted separately in 150 mM NaCl, combined and complex formation was allowed for 25 min at RT before addition to the cells and incubation ON. Hoechst 33342 (0.75 μg/ml Sigma), MitoTracker (30 nM, Molecular probes) and Propidium iodide (1 μg/ml, Sigma) were added 15 min prior to imaging. HaloTag constructs were stained by incubating the cells with HaloTag TMR Ligand ON (25 nM, Promega). The cells were imaged using InCell Analyzer 2000, Confocal Zeiss LSM 700 or Confocal Zeiss LSM 710 in an environmental chamber.
In accordance to the finding in the cells (FIG. 2A), Myo19^860-890-eGFP was co-purified with mitochondria, however unlike the endogenous Myo19, it appears to be more sensitive to extraction by salt. Carbonate completely extracts Myo19^860-890-eGFP from purified mitochondria, similarly to endogenous Myo19 (FIG. 22). The difference in salt sensitivity may be due to insufficient length of the motif to be fully anchored in the membrane as in the WT endogenous protein. Another possibility is that a certain part of Myo19^860-890-eGFP was correctly anchored, where the rest was present there nonspecifically, e.g. through dimerization of eGFP. […] To further explore the OMM targeting the motif sequence was examined. Although there is no consensus sequence targeting proteins to the OMM, it was shown that a moderately hydrophobic motif flanked by positive residues is required for OMM localization. […]

In assay [2] the test system is Myo19-eGFP expressing U2OS cells. The assay is described as follows: Myo19 foci formation / translocation to cell periphery in Myo19-eGFP expressing cells treated with cytoskeleton interfering drugs. Type of assay: cell-based. How it is done:
Cells were rinsed once and incubated in starvation medium (Glucose free DMEM supplemented with 20 mM Hepes-KOH pH 7.4, 5 mg/ml BSA, 100 U/ml penicillin, 100 μg/ml streptomycin and 0.25 μg/ml amphotericin B). Cytoskeleton interfering drugs (final concentration: 0.2 μM Latrunculin B or 0.75 μg/ml Nocodazole) were first diluted in growth media and then added to the cells.
as §1
Mitochondria function as an intracellular biosensor that responds to environmental changes, stress cues and physiological stimuli. Therefore, it is essential to test the function of myosin 19 and its relation to mitochondrial distribution and morphology in cells under starvation conditions as well under drugs, which disrupt cytoskeletal structures. Starvation stress was chosen because it strongly shifts mitochondrial dynamics of fission and fusion, inducing hyperfusion of the mitochondrial network, and that fission and fusion depend on force generation on the mitochondria. Therefore, it was assessed whether or not starvation-induced hyperfusion is accompanied by any differential cellular localization of myosin 19. Myosin 19-eGFP was overexpressed and cells were starved for four hrs. […] The inventors further tested if myosin 19 OMM binding motif is essential for this starvation-induced localization (FIG. 3A, middle two panels). […] This lends further support to the interpretation that myosin 19^Δ860-890-eGFP cannot compete with the endogenous myosin 19 because of its inability to bind the mitochondria. The inventors further assessed whether this transition of myosin 19 to the cell periphery requires myosin 19 motor activity utilizing an overexpression of myosin 19 tail (FIG. 3A, bottom two panels, FIG. 8) and an ATPase dead mutant G 135R (FIG. 9, FIG. 8). […] Indeed, pre-treatment of cells with 0.2 μM Latrunculin B that disrupts actin filaments of the cytoskeleton for 30 min inhibited the starvation-induced translocation of myosin 19 and the mitochondria to the cell periphery (FIG. 3B, FIG. 10). […]

For assay [3], the target named is lipid SUVs with a phospholipid composition similar to the OMM (55% PC, 30% PE, 13% PI, 2% DOPS). Put plainly: Equilibrium binding of peptides to OMM mimicking vesicles by fluorescence anisotropy. How it is done:
(§2) Phosphatidylcholine (PC, Sigma), Phosphatidylethanolamine (PE, Sigma), Phosphatidylinositol (PI, Sigma) and Dioleoyl phosphatidylserine (DOPS, Avanti) were mixed in chloroform and evaporated under nitrogen. The vesicles were then resuspended in 40 mM Hepes pH 7.1, 150 mM NaCl and subjected to 10 freeze-thaw cycles in liquid nitrogen and kept in −80° C. The vesicles were thawed and sonicated for five min at low intensity; insoluble material was removed by centrifugation at 100,000×gav for 20 min. Vesicles were used within two days after sonication.
(§3) Equilibrium binding by Fluorescence Anisotropy (FA) measurements was performed with PCI spectrofluorimeter (ISS, Champaign, Ill.) designed as T-format for simultaneous acquisition on two emission channel monochromators equipped with automatic polarizers. Samples were equilibrated (60 min, RT) and then measurements were done with intrinsic fluorescence of the peptide with λex=280 nm using vertical polarized light and the emitted vertical and horizontal polarized light was monitored at 90° with double emission monochromators at λem=325 nm. (i-factor for correction of the different gain between the dual PMT detectors was calculated as described by the instrument manufacturer. The binding model for a simple bimolecular reaction was:
[formula] [formula] Under the condition of Ptot<<KD then the general solution for this equilibrium binding scheme is in the form of the following quadratic equation:
[formula] Ptot is monitoring species; Vtot is titrating species and [PV] is the bound species. The total fluorescence and anisotropy were fitted globally (Origin Lab 9.0) according to Otto et al. Biophys J, 1994. 67(6): p. 2511-21.
Myo19 peptides were purchased as crude preparations and resuspended in 10% Acetonitrile (ACN) and either 0.1% (for Myo19^851-895) or 0.01% (for Myo19^858-883 and Myo19^858-RK883SS) trifluoroacetic acid (TFA). The peptides were then loaded on a C-18 column (Waters) and separated by reverse phase chromatography. Peaks were analyzed by MALDI-TOF and verified to be of the right molecular weight corresponding to the peptide size. The peptides were then dried and resuspended in either 5% DMF (Myo19^858-883 and Myo19^RK883SS) or 16% DMF (Myo19^851-895) in binding buffer (40 mM Hepes pH 7.1, 150 mM NaCl). Myo19^851-895, Myo19^858-883, Myo19^858-RK883SS peptides were from GL Biochem (Shanghai, China). Zeta1 was from Sigma (Saint Louis, Mo., USA).
To characterize Myo19 membrane binding motif, the binding of a synthetic peptide representing Myo19 residues 851-895 (SEQ ID NO: 12, Table 3) to lipid SUVs (Small unilamellar vesicles) with a phospholipid composition similar to the OMM (55% PC, 30% PE, 13% PI, 2% DOPS (de Kroon et al., 1997)) was tested. Binding was followed via fluorescence anisotropy (FA) relying on two tryptophan residues that are present in the peptide. […] Equilibrium binding of Myo19 peptide to vesicles was monitored by titrating peptide versus increasing vesicles concentration. […] Therefore, to account for the FTI change during the FA measurements, global fitting to both signals arising from peptide binding to vesicles to compensate for the change in fluorescence yield during FA measurements was applied. […] In-vitro binding of a hydrophilic peptide Zeta1 (SEQ ID NO:15, Table 3), was much weaker (˜2.5 folds) compared to the Myo19 peptide (124.4±18.7 μM), supporting the notion that Myo19-OMM binding is mediated by hydrophobic interactions (FIG. 23). Although our newly identified membrane motif is essential and sufficient for OMM localization in cells, the cellular specificity may be achieved by unique, yet unidentified cytosolic or others mitochondrial components.
On the technique in general: Fluorescence polarisation rises when a labelled molecule tumbles more slowly, as on binding a larger partner.

The target in assay [4] is ER mimicking vesicles (20% PE, 66 & PC, 9% PI, 3% DOPS). The assay is described as follows: Equilibrium binding of peptides to ER mimicking vesicles by fluorescence anisotropy. The note with it: FA/FTI global fit; peptide concentrations 4 μM; N=1; read-out: affinity to ER mimicking vesicles. How it is done:
as §2, §3
[formula] […]

The mark [5] stands for this setting: FA/FTI global fit, peptide concentrations 4 μM, N=1, read-out: affinity to OMM mimicking vesicles.

“Also recorded” adds a separate entry of the source. Read-outs that look alike come from different tables or passages of the source.

Consider “IIRL*WVLGLVLANTAMGVGSF*QRKLVVWACL (IIRLWVLGLVLANTAMGVGSFQRKLVVWACL) [Peptide P865V, myosin 19 tail-eGFP construct with point mutation P865V]”, for which the Localization result in assay [1] is “dual localization to both the ER and the mitochondria; also recorded: ER/Mito-”.
Turning to `COC(=O)Nc1nc2ccc(C(=O)c3cccs3)cc2[nH]1` [nocodazole], in assay [2] (0.75 μg/ml nocodazole for three hrs, no starvation), the “localization of myosin 19 and mitochondria after nocodazole treatment” value was “induced the same altered localization”. For the same molecule, in assay [2] (nocodazole treatment, complete media conditions), the “cells with induced Myo19 foci formation” value is > 80 % of the cells.
Turning to “EAIIRLWPLGLVLANTAMGVGSFQSS [Myo19^858-RK882/3SS, corresponding ER mutant of the shorter Myo19 peptide]”, in assay [3] (setting [5]), the Kd was determined as 49 ± 17.2 µM.
Turning to “EAIIRLWPLGLVLANTAMGVGSFQRK [Myo19^858-883, shorter peptide derived from Myo19 membrane motif]”, the values for the Kd in assay [4] and in assay [3] (setting [5]) were 50.5 ± 22 µM and 45 ± 14.1 µM, respectively.
Regarding “PLQTRLLEAIIRLWPLGLVLANTAMGVGSFQRKLVVWACLQLPRG [Myo19^851-895, synthetic peptide representing Myo19 residues 851-895]”, in assay [3] ([NaCl] up to 1 M, peptide and vesicles 35 μM each), the “effect of [NaCl] on the magnitude of binding to vesicles” value was “no effect”. Also, the Kd in assay [3] (global fit of FA and FTI, peptide concentration 35 μM, 40 mM Hepes pH 7.1, 150 mM NaCl, read-out: apparent binding constant KD) was determined as 281 ± 50 µM.
In the case of “FRWGKPVGKKRRPVKVYPNGAEDESAEAFPLE [Zeta1, reference compound]”, the Kd in assay [3] (setting [5]) came to 124 ± 18.7 µM. For the same molecule, the “binding weaker compared to the Myo19 peptide” value in assay [3] (Zeta1 versus Myo19 peptide) is about 2.5 folds.
Turning to `C/C1=C/C(=O)O[C@@H]2C[C@@H](CC[C@H](C)/C=C\CC1)O[C@@](O)([C@@H]1CSC(=O)N1)C2` [Latrunculin B], the “cells showing <2 Myo19 foci” value in assay [2] (0.2 μM latrunculin B 30 min prior to starvation) is < 30 % of the cells. For the same molecule, in assay [2] (0.2 μM, 30 min pre-treatment, then starvation), the “starvation-induced translocation of myosin 19 and the mitochondria to the cell periphery” value is given as “inhibited”.
As to “IIRL*WPLGLVLANTAMGVGSF*QSSLVVWACL (IIRLWPLGLVLANTAMGVGSFQSSLVVWACL) [RK882/3SS, myosin 19 tail-eGFP construct with R882S and K883S in combination]”, the Localization entry in assay [1] (listed as SEQ ID NO: 10) is “shift of the intracellular localization of Myo19 to the ER”.

B1: IIRL*WPLGLVLANTAMGVGSF*QRKLVVWACL (protein, UniProt Q96H55 824-970, looked up, fragment)
chain: MACLAAKELDGVEEKHFSQAPCSLSTSPLQTRLLEAIIRLWPLGLVLANTAMGVGSFQRKLVVWACLQLPRGSPSSYTVQTAQDQAGVTSIRALPQGSIKFHCRKSPLRYADICPEPSPYSITGFNQILLERHRLIHVTSSAFTGLG
modifications: eGFP fusion
Regarding B1, the Localization result in assay [1] is “Mito-”.
